Assay results published in PMC10893631, “Receptor-based pharmacophore modeling, molecular docking, synthesis and biological evaluation of novel VEGFR-2, FGFR-1, and BRAF multi-kinase inhibitors” (BMC Chemistry, 2024).

Key:
MDA-MB-468 = assay: NCI SRB growth inhibition (single dose 10 µM / five-dose); format: cell-based, human; conditions: Homo sapiens; for inhibition at 10 µM: MDA-MB-468 (Breast cancer), read-out: GI%
Experimental: (§1) Screening of cytotoxic activity against a panel of sixty human tumor cell lines The selected compounds by NCI were evaluated for their anticancer activity in a two- stage process. […] Then, the output from the single dose screen is reported as a mean graph. […] Assay protocol. […] For a typical screening experiment, cells are inoculated into 96 well microtiter plates in 100 µL at plating densities ranging from 5000 to 40,000 cells/well depending on the doubling time of individual cell lines. […] After 24 h, two plates of each cell line are fixed in situ with TCA, to represent a measurement of the cell population for each cell line at the time of drug addition (Tz). The experimental drugs are solubilized in dimethyl sulfoxide at 400-fold the desired final maximum test concentration and stored frozen prior to use. At the time of drug addition, an aliquot of frozen concentrate is thawed and diluted to twice the desired final maximum test concentration with complete medium containing 50 µg/mL gentamicin. Additional four, 10-fold or ½ log serial dilutions are made to provide a total of five drug concentrations plus control. Aliquots of 100 mL of these different drug dilutions are added to the appropriate microtiter wells already containing […] of medium, resulting in the required final drug concentrations. […] For adherent cells, the assay is terminated by the addition of cold TCA. […] The supernatant is discarded, and the plates are washed five times with tap water and air dried. Sulforhodamine B (SRB) solution ([…]) at 0.4% (w/v) in 1% acetic acid is added to each well, and plates are incubated for 10 min at room temperature. After staining, unbound dye is removed by washing five times with 1% acetic acid and the plates are air dried. […] Using the seven absorbance measurements [time zero, (Tz), control growth, (C), and test growth in the presence of drug at the five concentration levels (Ti)], the percentage growth is calculated at each of the drug concentrations levels. Percentage growth inhibition is calculated as: [(Ti Tz)/(C–Tz)] x 100 for concentrations for which Ti>/=Tz and [(Ti-Tz)/Tz] x 100 for concentrations for which Ti < Tz. Three dose response parameters are calculated for each experimental agent. […] The drug concentration resulting in total growth inhibition (TGI) is calculated from Ti = Tz. […] Values are calculated for each of these three parameters if the level of activity is reached; however, if the effect is not reached or is exceeded, the value for that parameter is expressed as greater or less than the maximum or minimum concentration tested.

SNB-19 = assay: as above; format: cell-based, human; conditions: Homo sapiens; for inhibition at 10 µM: SNB-19 (CNS cancer), read-out: GI%
Experimental: as §1

HCT-116 = assay: as above; format: cell-based, human; conditions: Homo sapiens, HCT-116; for inhibition at 10 µM: read-out: GI%
Experimental: as §1

A498 = assay: as above; format: cell-based, human; conditions: Homo sapiens; for inhibition at 10 µM: A498 (Renal cancer), read-out: GI%
Experimental: as §1

K-562 = assay: as above; format: cell-based, human; conditions: Homo sapiens, K562; for inhibition at 10 µM: K-562 (Leukemia), read-out: GI%
Experimental: as §1

RPMI-8226 = assay: as above; format: cell-based, human; conditions: Homo sapiens; for inhibition at 10 µM: RPMI-8226 (Leukemia), read-out: GI%
Experimental: as §1

LOX IMVI = assay: as above; format: cell-based, human; conditions: Homo sapiens; for inhibition at 10 µM: LOX IMVI (Melanoma), read-out: GI%
Experimental: as §1

MCF7 = assay: as above; format: cell-based, human; conditions: Homo sapiens; for inhibition at 10 µM: MCF7 (Breast cancer), read-out: GI%
Experimental: as §1

SNB-75 = assay: as above; format: cell-based, human; conditions: Homo sapiens; for inhibition at 10 µM: SNB-75 (CNS cancer), read-out: GI%
Experimental: as §1

SF-539 = assay: as above; format: cell-based, human; conditions: Homo sapiens; for inhibition at 10 µM: SF-539 (CNS cancer), read-out: GI%
Experimental: as §1

DU-145 = assay: as above; format: cell-based, human; conditions: Homo sapiens; for inhibition at 10 µM: DU-145 (Prostate cancer), read-out: GI%
Experimental: as §1

SW-620 = assay: as above; format: cell-based, human; conditions: Homo sapiens; for inhibition at 10 µM: SW-620 (Colon cancer), read-out: GI%
Experimental: as §1

VEGFR-2 = target: T1, VEGFR-2 (Homo sapiens, UniProt P35968); assay: VEGFR-2 kinase assay kit (BPS), Kinase-Glo Max luminescence; format: biochemical; conditions: VEGFR-2, single dose 10 µM, duplicate, mean ± SD
T1 construct: purchased BPS Biosciences 40325
T1 sequence (P35968 20-1356): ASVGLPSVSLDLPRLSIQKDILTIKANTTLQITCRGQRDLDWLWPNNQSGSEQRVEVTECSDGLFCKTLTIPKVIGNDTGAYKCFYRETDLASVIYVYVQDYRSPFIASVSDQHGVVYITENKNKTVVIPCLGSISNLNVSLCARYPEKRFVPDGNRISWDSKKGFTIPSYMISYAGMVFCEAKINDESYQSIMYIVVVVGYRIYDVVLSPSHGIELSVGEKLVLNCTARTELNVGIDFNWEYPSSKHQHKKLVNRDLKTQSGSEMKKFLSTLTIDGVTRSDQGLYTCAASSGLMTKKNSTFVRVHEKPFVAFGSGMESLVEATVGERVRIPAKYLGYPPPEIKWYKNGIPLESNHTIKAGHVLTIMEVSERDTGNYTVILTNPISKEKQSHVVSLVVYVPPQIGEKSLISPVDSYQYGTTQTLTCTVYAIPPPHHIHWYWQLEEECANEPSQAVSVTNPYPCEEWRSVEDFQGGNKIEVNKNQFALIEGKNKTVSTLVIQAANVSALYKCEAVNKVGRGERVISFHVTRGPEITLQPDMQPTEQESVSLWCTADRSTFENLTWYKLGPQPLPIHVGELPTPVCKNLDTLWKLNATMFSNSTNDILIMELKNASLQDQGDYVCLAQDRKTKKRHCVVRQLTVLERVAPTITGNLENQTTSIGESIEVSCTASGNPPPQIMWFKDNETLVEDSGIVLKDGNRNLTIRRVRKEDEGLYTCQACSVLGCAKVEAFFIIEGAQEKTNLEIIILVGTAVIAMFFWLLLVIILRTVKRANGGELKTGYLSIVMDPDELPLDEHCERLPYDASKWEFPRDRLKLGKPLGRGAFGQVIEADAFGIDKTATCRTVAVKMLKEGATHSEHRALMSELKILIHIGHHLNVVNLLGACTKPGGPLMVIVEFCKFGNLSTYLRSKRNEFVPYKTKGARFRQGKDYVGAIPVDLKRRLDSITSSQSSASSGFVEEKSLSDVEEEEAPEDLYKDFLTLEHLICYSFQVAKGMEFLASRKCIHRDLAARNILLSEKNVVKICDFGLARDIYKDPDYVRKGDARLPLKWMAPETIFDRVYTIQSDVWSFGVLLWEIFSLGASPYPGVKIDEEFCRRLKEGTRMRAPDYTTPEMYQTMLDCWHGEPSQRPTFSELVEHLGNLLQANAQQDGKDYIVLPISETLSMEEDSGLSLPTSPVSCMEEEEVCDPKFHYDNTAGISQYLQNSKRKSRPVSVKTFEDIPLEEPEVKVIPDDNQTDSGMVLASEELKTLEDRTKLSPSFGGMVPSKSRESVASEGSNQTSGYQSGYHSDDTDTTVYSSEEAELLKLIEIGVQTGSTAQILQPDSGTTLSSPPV
Experimental: 2. Biochemical kinase assay procedure
The inhibitory activity against different kinases was determined using kinase kits […]
from BPS Biosciences and kinase-Glo Max luminescence kinase assay kit (Promega).
The assay was carried out according to the protocol provided by the manufacturer. A stock solution of the synthesized derivatives in 100% DMSO was prepared. Subsequently, the compounds were diluted to 10% DMSO.
A master mixture was prepared according to the number of wells. For VEGFR-2 and FGFR-1 biochemical assays each well include 6 μl of 5x Kinase Buffer 1 + 1 μl of 500 μM ATP + 1 μl of PTK Substrate (Poly-Glu,Tyr 4:1) (10 mg/ml) + 17 μl of distilled water. For BRAF assay each well include 6 μl of 5x Kinase Buffer 1 + 1 μl of ATP (500 μM) + 10 μl of 5X Raf substrate + 8 μl of distilled water. 1x Kinase buffer 1 was prepared by mixing 600 μl of 5x Kinase Buffer 1 with 2400 μl water to give 3 mL. Kinases were thawed on ice and were diluted with 1x Kinase Buffer 1.
To start the biochemical reaction, 25 µL of the master mixture was added to each well in 96 well plate. 5 µL of 10% DMSO was added to positive control wells and blank wells. 5 µL of diluted inhibitor was added to each well labelled with the test inhibitor so that the final concentration of DMSO is 1% in all reactions. Then 20 µL of (1 ng / μl) in case of VEGFR-2 and FGFR-1 or (2.5 ng/μl) in case of BRAF in 1x kinase buffer was added to positive control wells and wells labelled with the inhibitor, while 20 µL 1x kinase buffer 1 was added to the […]
The plate was incubated at 30 °C for 45 min. Subsequently, 50 μl of Kinase-Glo Max luminescence reagent was added to each well and the plate was covered with aluminum foil and incubated at room temperature 15 min. Finally, the luminescence was recorded using multimode microplate reader. Kinase activity assays were performed in duplicate at each […]
The luminescence data were analyzed as follows. The difference between luminescence intensities in the absence of kinase (Lut) and in the presence of kinase (Luc) was defined as 100 % activity (Lut – Luc). Using luminescence signal (Lu) in the presence of the compound, % activity was calculated as: % activity = {(Lut - Lu)/(Lut - Luc)}×100%. The […]
concentration of the test compounds required to reduce the kinase activity by 50% was determined from dose-response curves and recorded as their IC50. […]

With `COc1ccc(-c2nc3cc(C(=O)NN=Cc4cccc(OC)c4O)ccc3[nH]2)cc1` [8k, N'-(2-Hydroxy-3-methoxybenzylidene)-2-(4-methoxyphenyl)-1H-benzo[d]imidazole-5-carbohydrazide] the inhibition at 10 µM (MDA-MB-468) was greater than 100%, the GI50 (MDA-MB-468; MDA-MB-468, Breast cancer, five-dose) was 1950 nM and the inhibition at 10 µM (SNB-19) was greater than 100%. For the same compound, the GI50 (SNB-19; SNB-19, CNS cancer, five-dose) was 3330 nM, the GI50 (HCT-116) was 2900 nM and the inhibition at 10 µM (HCT-116) was greater than 100%. The inhibition at 10 µM (A498) was less than 5%, the GI50 (A498; A498, Renal cancer, five-dose) was greater than 100000 nM and the inhibition at 10 µM (K-562) was greater than 100%. The GI50 (K-562; K-562, Leukemia, five-dose) was 3740 nM, the inhibition at 10 µM (RPMI-8226) was greater than 100% and the GI50 (RPMI-8226; RPMI-8226, Leukemia, five-dose) was 2800 nM. It also gave an inhibition at 10 µM (LOX IMVI) greater than 100%, a GI50 (LOX IMVI; LOX IMVI, Melanoma, five-dose) of 2340 nM and an inhibition at 10 µM (MCF7) greater than 100%. It also gave a GI50 (MCF7; MCF7, Breast cancer, five-dose) of 1720 nM, an inhibition at 10 µM (SNB-75) of 91% and a GI50 (SNB-75; SNB-75, CNS cancer, five-dose) of 3050 nM. The inhibition at 10 µM (SF-539) was greater than 100%, the GI50 (SF-539; SF-539, CNS cancer, five-dose) was 2800 nM and the inhibition at 10 µM (DU-145) was 85.1%. For the same compound, the GI50 (DU-145; DU-145, Prostate cancer, five-dose) was 5060 nM, the inhibition at 10 µM (SW-620) was 98.8% and the GI50 (SW-620; SW-620, Colon cancer, five-dose) was 4350 nM. The inhibition at 10 µM (VEGFR-2) was 69.5 ± 4.37%.

For `COc1ccc(-c2nc3cc(C(=O)NN=Cc4ccc(OC)c(O)c4)ccc3[nH]2)cc1` [8l, N'-(3-Hydroxy-4-methoxybenzylidene)-2-(4-methoxyphenyl)-1H-benzo[d]imidazole-5-carbohydrazide], the inhibition at 10 µM (MDA-MB-468) was 44.4%, the inhibition at 10 µM (SNB-19) was 16.1% and the inhibition at 10 µM (HCT-116) was 43.8%. It also gave an inhibition at 10 µM (A498) of less than 5%, an inhibition at 10 µM (K-562) of 48.5% and an inhibition at 10 µM (RPMI-8226) of 32.4%. It also gave an inhibition at 10 µM (LOX IMVI) of 37.9%, an inhibition at 10 µM (MCF7) of 77.8% and an inhibition at 10 µM (SNB-75) of 25.8%. The inhibition at 10 µM (SF-539) was 42.6%, the inhibition at 10 µM (DU-145) was 27.9% and the inhibition at 10 µM (SW-620) was 21.8%. The inhibition at 10 µM (VEGFR-2) was 50.6 ± 5.29%.

With `COc1ccc(-c2nc3cc(C(=O)NN=Cc4cc(OC)ccc4OC)ccc3[nH]2)cc1` [8m, N'-(2,5-Dimethoxybenzylidene)-2-(4-methoxyphenyl)-1H-benzo[d]imidazole-5-carbohydrazide] the inhibition at 10 µM (MDA-MB-468) was 16.2%, the inhibition at 10 µM (SNB-19) was less than 5% and the inhibition at 10 µM (HCT-116) was 22.3%. The inhibition at 10 µM (A498) was less than 5%, the inhibition at 10 µM (K-562) was 22.8% and the inhibition at 10 µM (RPMI-8226) was 76.8%. It also gave an inhibition at 10 µM (LOX IMVI) of 18.8%, an inhibition at 10 µM (MCF7) of 20.6% and an inhibition at 10 µM (SNB-75) of less than 5%. The inhibition at 10 µM (SF-539) was 32.6%, the inhibition at 10 µM (DU-145) was less than 5% and the inhibition at 10 µM (SW-620) was less than 5%. It also gave an inhibition at 10 µM (VEGFR-2) of 6.67 ± 0.08%.
